US20030225152A1, “3-(Arylamino)methylene-1, 3-dihydro-2h-indol-2-ones as kinase inhibitors” (priority 2001, published 2003)

Tested on: VEGF induced increases in intracellular calcium levels in HUVEC (human umbilical vein endothelial cells)
Test: VEGF Stimulated Ca++ Signal in vitro (FLIPR)
Assay type: cell-based
Conditions: 10 μM, VEGF 5 ng/mL
Protocol: VEGF Stimulated Ca^++ Signal in vitro
Automated FLIPR (Fluorometric Imaging Plate Reader) technology was used to screen for inhibitors of VEGF induced increases in intracellular calcium levels in fluorescent dye loaded endothelial cells. HUVEC (human umbilical vein endothelial cells) (Clonetics) were seeded in 96-well fibronectin coated black-walled plates overnight at 37° C./5%CO2. Cells were loaded with calcium indicator Fluo-4 for 45 minutes at 37° C. Cells were washed 4 times (Original Cell Wash, Labsystems) to remove extracellular dye. Test compounds were reconstituted in 100% DMSO and added to the cells to give a final DMSO concentration of 0.1%. For screening, cells were pre-incubated with test agents for 30 minutes, at a single concentration (10 μM) or at concentrations ranging from 0.01 to 10.0 μM followed by VEGF stimulation (5 ng/mL). Changes in fluorescence at 516 nm were measured simultaneously in all 96 wells using a cooled CCD camera. Data were generated by determining max-min fluorescence levels for unstimulated, stimulated, and drug treated samples. IC50 values for test compounds were calculated from % inhibition of VEGF stimulated responses in the absence of inhibitor.

Question: How did the “VEGF Stimulated Ca^++ signal assay % inhibition @ 10 μM” value turn out when “3-[(Bis-trifluoromethyl-phenylamino)-methylene]-1,3-dihydro-indol-2-one [Example 46]” was run?
Answer: The value was −4.00%.

Question: For “3-[(Chloro-trifluoromethyl-phenylamino)-methylene]-1,3-dihydro-indol-2-one [Example 45]”, which “VEGF Stimulated Ca^++ signal assay % inhibition @ 10 μM” value is on record?
Answer: The value was 50.00%.

Question: “3-[(Fluoro-trifluoromethyl-phenylamino)-methylene]-1,3-dihydro-indol-2-one [Example 47]” was tested. Which “VEGF Stimulated Ca^++ signal assay % inhibition @ 10 μM” value did it give?
Answer: Its value is −2.50%.

Question: With “3-[(Methyl-trifluoromethyl-phenylamino)-methylene]-1,3-dihydro-indol-2-one [Example 56]” as the compound, how does the “VEGF Stimulated Ca^++ signal assay % inhibition @ 10 μM” value read?
Answer: The value was 21.00%.

Question: With “4-[(2-Oxo-1,2-dihydro-indol-3-ylidenemethyl)-amino]-phospate [Example 84]” as the compound, how does the “VEGF Stimulated Ca^++ signal assay % inhibition @ 10 μM” value read?
Answer: The value was 11.50%.

Question: “5-Chloro-3-[(phenylamino)-methylene]-1,3-dihydro-indol-2-one benzothiazol-6-yl-amine [Example 101]” was tested. Which “VEGF Stimulated Ca^++ signal assay % inhibition @ 10 μM” value did it give?
Answer: Its value is 22.00%.

Question: `CCOC(=O)c1ccc(NC=C2C(=O)Nc3ccccc32)cc1` [Example 8, 4-[(2-Oxo-1,3-dihydro-indol-3-ylididenemethyl)-amino]-benzoic acid ethyl ester] was tested. Which “VEGF Stimulated Ca^++ signal assay % inhibition @ 10 μM” value did it give?
Answer: The value was 9%.

Question: Which “VEGF Stimulated Ca^++ signal assay % inhibition @ 10 μM” value does the source give for `CC(=O)NS(=O)(=O)c1ccc(NC=C2C(=O)Nc3ccccc32)cc1` [Example 39, 2-Oxo-1,2-dihydro-indol-3-ylidenemethyl-sulfaacetamide] here?
Answer: Its value is −14.50%.

Question: With `O=C1Nc2ccccc2C1=CNc1ccc(Oc2ccccc2)cc1` [Example 41, 3-[(4-Phenoxyamino)-methylene]-1,3-dihydro-indol-2-one] as the compound, how does the “VEGF Stimulated Ca^++ signal assay % inhibition @ 10 μM” value read?
Answer: Its value is 16.00%.

Question: With `COc1ccc(NC=C2C(=O)Nc3ccccc32)cc1OC` [Example 42, 3-[(3,4-Dimethoxyamino)-methylene]-1,3-dihydro-indol-2-one] as the compound, how does the “VEGF Stimulated Ca^++ signal assay % inhibition @ 10 μM” value read?
Answer: Its value is 59.50%.

Question: `O=C1Nc2ccc(Cl)cc2C1=CNc1ccc2c(c1)OCO2` [Example 68, 3-[(3,4-Metylenedioxyphenylamino)-methylene]-5-chloro-1,3-dihydro-indol-2-one] was tested. Which “VEGF Stimulated Ca^++ signal assay % inhibition @ 10 μM” value did it give?
Answer: Its value is −2.50%.

Same assay, conditions: Homo sapiens, 10 μM, VEGF 5 ng/mL

Question: With `O=C1Nc2ccccc2C1=CNc1ccccc1` [Example 1, 3-Phenylaminomethylene-1,3-dihydro-indol-2-one] as the compound, how does the inhibition at 10 µM read?
Answer: Its inhibition at 10 µM is 92%.

Question: Which inhibition at 10 µM does the source give for `O=C1Nc2ccccc2C1=CNc1cccc(Br)c1` [Example 2, 3-[(3-Bromo-phenylamino)-methylene]-1,3-dihydro-indol-2-one] here?
Answer: Its inhibition at 10 µM is -0.5%.

Question: `O=C1Nc2ccccc2C1CNc1ccc(Br)cc1` (stereo not drawn) [Example 3, 3-[(4-Bromo-phenylamino)-methyl]-1,3-dihydro-indol-2-one] was tested. Which inhibition at 10 µM did it give?
Answer: Its inhibition at 10 µM is 3.5%.

Question: For `O=C1Nc2ccccc2C1CNc1cccc(Br)c1` (stereo not drawn) [Example 4, 3-[(3-Bromo-phenylamino)-methyl]-1,3-dihydro-indol-2-one], which inhibition at 10 µM is on record?
Answer: Its inhibition at 10 µM is 16.5%.

Question: How did the inhibition at 10 µM turn out when `CCc1ccccc1NC=C1C(=O)Nc2ccccc21` [Example 9, 3-[(2-Ethyl-phenylamino)-methylene}-1,3-dihydro-indol-2-one] was run?
Answer: The inhibition at 10 µM was 13.5%.

Question: `Cc1ccc(NC=C2C(=O)Nc3ccccc32)cc1F` [Example 10, 3-[(3-Fluoro-4-methyl-phenylamino)-methylene]-1,3-dihydro-indol-2-one] was tested. Which inhibition at 10 µM did it give?
Answer: The inhibition at 10 µM was 46%.

Question: Which inhibition at 10 µM does the source give for `Cc1c(F)cccc1NC=C1C(=O)Nc2ccccc21` [Example 11, 3-[(3-Fluoro-2-methyl-phenylamino)-methylene]-1,3-dihydro-indol-2-one] here?
Answer: Its inhibition at 10 µM is -14%.

Question: With `O=C1Nc2ccccc2C1=CNc1ccc(O)cc1` [Example 12, 3-[(4-Hydroxy-phenylamino)-methylene]-1,3-dihydro-indol-2-one] as the compound, how does the inhibition at 10 µM read?
Answer: Its inhibition at 10 µM is 94.2%.

Question: With `O=C1Nc2ccccc2C1=CNc1ccc(O)c(Cl)c1` [Example 13, 3-[(3-Chloro-4-hydroxy-phenylamino)-methylene]-1,3-dihydro-indol-2-one] as the compound, how does the inhibition at 10 µM read?
Answer: The inhibition at 10 µM was -12.5%.

Question: `Cc1cc(F)ccc1NC=C1C(=O)Nc2ccccc21` [Example 14, 3-[(4-Fluoro-2-methyl-phenylamino)-methylene]-1,3-dihydro-indol-2-one] was tested. Which inhibition at 10 µM did it give?
Answer: The inhibition at 10 µM was -14%.

Question: `Cc1ccc(NC=C2C(=O)Nc3ccccc32)cc1` [Example 18, 3-(p-Tolylamino-methylene)-1,3-dihydro-indol-2-one] was tested. Which inhibition at 10 µM did it give?
Answer: The inhibition at 10 µM was 35.5%.

Question: With `Cc1cc(C)cc(NC=C2C(=O)Nc3ccccc32)c1` [Example 19, 3-[(3,5-Dimethyl-phenylamino)-methylene]-1,3-dihydro-indol-2-one] as the compound, how does the inhibition at 10 µM read?
Answer: The inhibition at 10 µM was 14%.

Question: How did the inhibition at 10 µM turn out when `O=C1Nc2ccccc2C1=CNc1cccc(C(F)(F)F)c1` [Example 22, 3-[(3-Trifluoromethyl-phenylamino)-methylene]-1,3-dihydro-indol-2-one] was run?
Answer: The inhibition at 10 µM was 22.5%.

Question: `O=C1Nc2ccccc2C1=CNc1ccc2c(c1)CCC2` [Example 23, 3-(Indan-5-ylaminomethylene)-1,3-dihydro-indol-2-one] was tested. Which inhibition at 10 µM did it give?
Answer: Its inhibition at 10 µM is 42%.

Question: With `O=C1Nc2ccccc2C1=CNc1ccc(Cl)cc1F` [Example 24, 3-[(4-Chloro-2-fluoro-phenylamino)-methylene]-1,3-dihydro-indol-2-one] as the compound, how does the inhibition at 10 µM read?
Answer: Its inhibition at 10 µM is -13.5%.

Question: With `O=C1Nc2ccccc2C1=CNc1ccc(C(F)(F)F)cc1` [Example 25, 3-[(4-Trifluoromethyl-phenylamino)-methylene]-1,3-dihydro-indol-2-one] as the compound, how does the inhibition at 10 µM read?
Answer: Its inhibition at 10 µM is -1.5%.

Question: For `CCOC(=O)Oc1cc(NC=C2C(=O)Nc3ccccc32)c(F)cc1C` [Example 26, Carbonic acid ethyl ester 4-fluoro-2-methyl-5-[(2-oxo-1,2-dihydro-indol-3-ylidenemethyl)-amino]-phenyl ester], which inhibition at 10 µM is on record?
Answer: The inhibition at 10 µM was 37.5%.

Question: Which inhibition at 10 µM does the source give for `Cc1cc(F)c(NC=C2C(=O)Nc3ccccc32)cc1OC(=O)OCC(C)(C)C` [Example 27, Carbonic acid 2,2-dimethyl-propyl ester 4-fluoro-2-methyl-5-[(2-oxo-1,2-dihydro-indol-3-ylidenemethyl)-amino]-phenyl ester] here?
Answer: The inhibition at 10 µM was -9%.

Question: How did the inhibition at 10 µM turn out when `O=C1Nc2ccccc2C1=CNc1cc(O)c(Cl)cc1F` [Example 28, 3-[(4-Chloro-2-fluoro-5-hydroxy-phenylamino)-methylene]-1,3-dihydro-indol-2-one] was run?
Answer: The inhibition at 10 µM was 32.5%.

Question: `N#CCc1ccc(NC=C2C(=O)Nc3ccccc32)cc1` [Example 30, 3-[(4-Cyanomethylphenylamino)-methylene]-1,3-dihydro-indol-2-one] was tested. Which inhibition at 10 µM did it give?
Answer: The inhibition at 10 µM was 39.5%.

Question: With `O=C1Nc2ccccc2C1=CNc1ccc(Cl)cc1` [Example 36, 3-[(4-Chlorophenylamino)-methylene]-1,3-dihydro-indol-2-one] as the compound, how does the inhibition at 10 µM read?
Answer: Its inhibition at 10 µM is 30%.

Question: For `O=C1Nc2ccccc2C1=CNc1ccc(Cl)c(C(=O)O)c1` [Example 37, 2-Chloro-5-[(2-oxo-1,2-dihydro-indol-3-ylidenemethyl)-amino]-benzoic acid], which inhibition at 10 µM is on record?
Answer: The inhibition at 10 µM was -4%.

Question: How did the inhibition at 10 µM turn out when `O=C1Nc2ccccc2C1=CNc1ccc(OC(F)(F)F)cc1` [Example 51, 3-[(4-Trifluoromethoxy-phenylamino)-methylene]-1,3-dihydro-indol-2-one] was run?
Answer: The inhibition at 10 µM was 45.5%.

Question: How did the inhibition at 10 µM turn out when `Cc1ccc(NC=C2C(=O)Nc3ccccc32)c(F)c1` [Example 53, 3-[(2-Fluoro-4-methyl-phenylamino)-methylene]-1,3-dihydro-indol-2-one] was run?
Answer: Its inhibition at 10 µM is 2.5%.

Question: With `Cc1cc(NC=C2C(=O)Nc3ccccc32)ccc1Cl` [Example 54, 3-[(4-Chloro-3-methyl-phenylamino)-methylene]-1,3-dihydro-indol-2-one] as the compound, how does the inhibition at 10 µM read?
Answer: The inhibition at 10 µM was 40.5%.

Question: How did the inhibition at 10 µM turn out when `COc1ccc(NC=C2C(=O)Nc3ccccc32)cc1C(F)(F)F` [Example 55, 3-[(4-Methoxy-3-trifluoromethyl-phenylamino)-methylene]-1,3-dihydro-indol-2-one] was run?
Answer: Its inhibition at 10 µM is 14.5%.

Question: With `COc1cc(NC=C2C(=O)Nc3cccc(C)c32)cc(OC)c1` [Example 61, 3-[(3,5-Dimethoxy-phenylamino)-methylene]-4-methyl-1,3-dihydro-indol-2-one] as the compound, how does the inhibition at 10 µM read?
Answer: Its inhibition at 10 µM is -4.5%.

Question: With `Cc1ccc(NC=C2C(=O)Nc3cccc(C)c32)cc1` [Example 62, 4-Methyl-3-(p-tolylamino-methylene)-1,3-dihydro-indol-2-one] as the compound, how does the inhibition at 10 µM read?
Answer: The inhibition at 10 µM was 33%.

Question: With `Cc1cc(C)cc(NC=C2C(=O)Nc3cccc(C)c32)c1` [Example 63, 3-[(3,5-Dimethyl-phenylamino)-methylene]-4-methyl-1,3-dihydro-indol-2-one] as the compound, how does the inhibition at 10 µM read?
Answer: Its inhibition at 10 µM is -14.5%.

Question: Which inhibition at 10 µM does the source give for `O=C1Nc2ccc(Cl)cc2C1=CNc1ccc(OC(F)F)cc1` [Example 64, 3-[(4-Difluoromethoxyphenylamino)-methylene]-5-chloro-1,3-dihydro-indol-2-one] here?
Answer: Its inhibition at 10 µM is 37%.

Question: For `O=C1Nc2ccc(Cl)cc2C1=CNc1ccc(OC(F)(F)F)cc1` [Example 66, 3-[(4-Trifluoromethoxyphenylamino)-methylene]-5-chloro-1,3-dihydro-indol-2-one], which inhibition at 10 µM is on record?
Answer: The inhibition at 10 µM was 18.5%.

Question: Which inhibition at 10 µM does the source give for `Cc1cc(NC=C2C(=O)Nc3ccc(Cl)cc32)ccc1O` [Example 67, 3-[(3-Methyl-4-hydroxyphenylamino)-methylene]-5-chloro-1,3-dihydro-indol-2-one] here?
Answer: Its inhibition at 10 µM is 19%.

Question: With `Cc1ccc(NC=C2C(=O)Nc3ccc(Cl)cc32)cc1C` [Example 69, 3-[(3,4-Dimethylphenylamino)-methylene]-5-chloro-1,3-dihydro-indol-2-one] as the compound, how does the inhibition at 10 µM read?
Answer: The inhibition at 10 µM was -10.7%.

Question: For `CC(C)c1ccc(NC=C2C(=O)Nc3ccc(Cl)cc32)cc1` [Example 70, 3-[(4-i-Propylphenylamino)-methylene]-5-chloro-1,3-dihydro-indol-2-one], which inhibition at 10 µM is on record?
Answer: Its inhibition at 10 µM is 25%.

Same assay, conditions: Homo sapiens, 0.01 to 10.0 μM, VEGF 5 ng/mL

Question: Which IC50 does the source give for `O=C1Nc2ccccc2C1=CNc1ccccc1` [Example 1, 3-Phenylaminomethylene-1,3-dihydro-indol-2-one] here?
Answer: The IC50 was 4.05 µM.

Question: `Cc1ccc(NC=C2C(=O)Nc3ccccc32)cc1F` [Example 10, 3-[(3-Fluoro-4-methyl-phenylamino)-methylene]-1,3-dihydro-indol-2-one] was tested. Which IC50 did it give?
Answer: The IC50 was ≥ 10 µM.

Question: For `O=C1Nc2ccccc2C1=CNc1ccc(O)cc1` [Example 12, 3-[(4-Hydroxy-phenylamino)-methylene]-1,3-dihydro-indol-2-one], which IC50 is on record?
Answer: Its IC50 is 1.07 µM.
